# Patent US20230117034A1, “PYRAZOLOTRIAZINES” (Bayer Aktiengesellschaft, priority 2019, published 2023)
# Read-outs that look alike come from different tables or passages of the source.
# Columns and labels:
# Assay type in all cases: cell-based
# [1] = target: T1, CDK12 (nuclear staining in CAL-120 cells) (Homo sapiens, UniProt Q9NYV4); assay: CDK12 nuclear protein level: immunofluorescence/high content analysis (CAL-120); details: for DC50: CAL-120 cells, 24 h, immunofluorescence, 50% reduction of nuclear CDK12 staining intensity, median, read-out: CDK12 degradation IF, DC50- [mol/l] (median); for (IC50 CDK12 high ATP) to (Degradation DC50 CDK12) ratio: ratio of IC50 CDK12 high ATP kinase assay to DC50 CDK12 degradation (IF, CAL-120)
# T1 construct: endogenous in cells; host or cells: CAL-120 human breast cancer cells (DSMZ ACC 459)
# T1 sequence (Q9NYV4 whole entry): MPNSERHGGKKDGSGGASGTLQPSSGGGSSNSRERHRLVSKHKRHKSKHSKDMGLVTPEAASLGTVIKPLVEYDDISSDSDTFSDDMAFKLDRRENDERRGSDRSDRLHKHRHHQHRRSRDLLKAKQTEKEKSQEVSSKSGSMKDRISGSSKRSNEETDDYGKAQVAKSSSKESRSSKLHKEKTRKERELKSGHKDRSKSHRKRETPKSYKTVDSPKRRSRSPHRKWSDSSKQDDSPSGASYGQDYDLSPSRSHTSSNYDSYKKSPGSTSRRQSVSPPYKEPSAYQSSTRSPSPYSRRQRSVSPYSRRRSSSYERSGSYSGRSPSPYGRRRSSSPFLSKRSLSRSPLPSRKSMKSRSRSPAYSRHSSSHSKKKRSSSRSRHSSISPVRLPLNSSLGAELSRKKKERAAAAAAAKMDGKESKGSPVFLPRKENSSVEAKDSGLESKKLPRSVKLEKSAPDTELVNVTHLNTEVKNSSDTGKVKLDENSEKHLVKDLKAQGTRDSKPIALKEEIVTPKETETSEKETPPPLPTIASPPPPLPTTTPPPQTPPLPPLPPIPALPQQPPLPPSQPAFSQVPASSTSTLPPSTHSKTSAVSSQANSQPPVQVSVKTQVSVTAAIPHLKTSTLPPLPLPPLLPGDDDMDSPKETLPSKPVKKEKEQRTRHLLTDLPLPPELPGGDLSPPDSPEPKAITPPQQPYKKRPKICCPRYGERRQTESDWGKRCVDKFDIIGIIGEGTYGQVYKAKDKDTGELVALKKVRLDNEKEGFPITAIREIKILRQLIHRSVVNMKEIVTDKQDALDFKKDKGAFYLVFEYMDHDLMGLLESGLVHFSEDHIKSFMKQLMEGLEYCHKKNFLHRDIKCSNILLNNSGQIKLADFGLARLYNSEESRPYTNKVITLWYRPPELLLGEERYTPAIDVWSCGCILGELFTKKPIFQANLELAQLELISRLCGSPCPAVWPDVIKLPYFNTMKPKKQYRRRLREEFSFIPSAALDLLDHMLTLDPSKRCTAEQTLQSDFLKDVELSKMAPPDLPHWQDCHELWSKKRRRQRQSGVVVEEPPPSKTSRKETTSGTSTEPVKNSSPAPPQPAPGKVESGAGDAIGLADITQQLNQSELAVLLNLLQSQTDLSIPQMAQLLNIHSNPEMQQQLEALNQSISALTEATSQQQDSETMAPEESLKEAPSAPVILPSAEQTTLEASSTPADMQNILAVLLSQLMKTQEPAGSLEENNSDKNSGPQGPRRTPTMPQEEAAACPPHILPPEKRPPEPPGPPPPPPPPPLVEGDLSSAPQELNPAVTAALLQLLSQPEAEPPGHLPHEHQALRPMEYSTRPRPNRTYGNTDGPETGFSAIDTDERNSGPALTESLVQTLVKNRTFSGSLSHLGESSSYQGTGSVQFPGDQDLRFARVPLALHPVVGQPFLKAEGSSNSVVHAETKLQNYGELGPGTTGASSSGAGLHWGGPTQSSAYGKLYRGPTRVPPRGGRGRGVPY
# T1 sequence (O75909 whole entry partner): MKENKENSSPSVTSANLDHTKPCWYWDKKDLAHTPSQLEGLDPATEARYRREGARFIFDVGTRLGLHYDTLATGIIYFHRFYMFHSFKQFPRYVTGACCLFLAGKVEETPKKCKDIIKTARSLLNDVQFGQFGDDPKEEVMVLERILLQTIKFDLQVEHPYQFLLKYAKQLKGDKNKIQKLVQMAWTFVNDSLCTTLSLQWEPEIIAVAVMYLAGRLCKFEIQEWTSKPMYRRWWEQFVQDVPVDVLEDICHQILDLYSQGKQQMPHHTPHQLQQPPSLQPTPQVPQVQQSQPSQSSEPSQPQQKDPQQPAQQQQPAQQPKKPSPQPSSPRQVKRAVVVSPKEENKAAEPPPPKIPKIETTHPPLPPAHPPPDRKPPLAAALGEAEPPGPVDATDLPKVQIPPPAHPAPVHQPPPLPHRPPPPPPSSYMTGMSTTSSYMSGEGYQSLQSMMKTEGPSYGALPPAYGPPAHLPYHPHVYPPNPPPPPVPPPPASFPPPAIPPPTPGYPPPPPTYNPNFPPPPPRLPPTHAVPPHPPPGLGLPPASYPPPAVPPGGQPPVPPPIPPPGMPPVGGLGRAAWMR
# Procedure, shortened: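 CAL-120 cells were treated with compound for 24 h at 37 °C, fixed with PFA and immunostained for CDK12. Nuclear CDK12 intensity was quantified by automated image analysis and normalized to DMSO and control. DC50 is the concentration giving 50% reduction of nuclear staining.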
# [2] = target: T2, CYCLIN K (nuclear staining in CAL-120 cells) (Homo sapiens, UniProt O75909); assay: CYCLIN K nuclear protein level: immunofluorescence high content analysis (CAL-120); details: 24 h, 50% reduction of nuclear CCNK staining intensity, median, read-out: CYCLIN K degradation IF, DC50-[mol/l] (median)
# T2 construct: endogenous in cells; host or cells: CAL-120 human breast cancer cells (DSMZ ACC 459)
# T2 sequence (O75909 whole entry): as the sequence (O75909 whole entry partner) above
# T2 sequence (Q9NYV4 whole entry partner): as the sequence (Q9NYV4 whole entry) above
# Procedure, shortened: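 CAL-120 breast cancer cells treated in dose-response for 24 h at 37 °C, PFA-fixed and immunostained for cyclin K with Hoechst counterstain. Confocal imaging quantified nuclear intensity; DC50 is the concentration giving 50% reduction of nuclear CCNK staining, normalized to DMSO and control.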
# [3] = system: MDA-MB-231, human breast cancer cells; assay: Proliferation assay MDA-MB-231 (crystal violet, 4 days); details: MDA-MB-231 cells, median, read-out: Prolif-MDA MB-231, IC50-[mol/l] (median)
# Procedure, shortened: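 Plated 4,000 cells/well, 10% FCS; 24 h later treated 0.01-10 µmol/L cpd (DMSO 0.1%), 4 d. Fix glutaraldehyde, stain 0.1% crystal violet pH 3.0, elute acetic acid, A595. Normalized to t0 plate/untreated; 4-param IC50.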
SMILES,DC50 [1] [nM],(IC50 CDK12 high ATP) to (Degradation DC50 CDK12) ratio [1],DC50 [2] [nM],IC50 [3] [nM],"IC50 ([3]; Homo sapiens, MDA-MB-231, 96 h) [nM]"
"CC1CN(C)CCN1c1nc(NCc2nc3ccccc3[nH]2)n2ncc(Br)c2n1 (single isomer, unassigned; enantiomer 1) [Example 260, N-(1H-benzimidazol-2-ylmethyl)-8-bromo-2-[(2R or S)-2,4-dimethylpiperazin-1-yl]pyrazolo[1,5-a][1,3,5]triazin-4-amine (Enantiomer 1)]",1.78,6819,0.152,13.4,
"CN(CC(C)(C)O)c1nc(NCc2nc3c(F)cccc3[nH]2)n2ncc(C3CC3)c2n1 [Example 295, 1-[(8-cyclopropyl-4-{[(4-fluoro-1H-benzimidazol-2-yl)methyl]amino}pyrazolo[1,5-a][1,3,5]triazin-2-yl)(methyl)amino]-2-methylpropan-2-ol]",3.52,235,2.55,,23.7
"Fc1ccc2[nH]c(CNc3nc(N4CCOCC4)nc4c(C(F)(F)F)cnn34)nc2c1 [Example 273, N-[(5-fluoro-1H-benzimidazol-2-yl)methyl]-2-(morpholin-4-yl)-8-(trifluoromethyl)pyrazolo[1,5-a][1,3,5]triazin-4-amine]",1.44,512,0.66,,6
"COc1ccc2[nH]c(CNc3nc(N4CCOCC4)nc4c(C(F)(F)F)cnn34)nc2c1 [Example 257, N-[(5-methoxy-1H-benzimidazol-2-yl)methyl]-2-(morpholin-4-yl)-8-(trifluoromethyl)pyrazolo[1,5-a][1,3,5]triazin-4-amine]",3,39,0.864,,10.7
"N[C@H]1[C@@H]2C[C@H]1CN(c1nc(NCc3nc4ccccc4[nH]3)n3ncc(Br)c3n1)C2 [Example 288, 2-[(1R,5S,6r)-6-amino-3-azabicyclo[3.1.1]heptan-3-yl]-N-[(1H-benzimidazol-2-yl)methyl]-8-bromopyrazolo[1,5-a][1,3,5]triazin-4-amine]",1.16,2920,0.418,,5.68
"CC1(N)CCN(c2nc(NCc3nc4ccccc4[nH]3)n3ncc(Br)c3n2)CC1 [Example 290, 2-(4-amino-4-methylpiperidin-1-yl)-N-[(1H-benzimidazol-2-yl)methyl]-8-bromopyrazolo[1,5-a][1,3,5]triazin-4-amine]",21.5,>920,8.58,,64.9
"N[C@@H]1[C@@H]2C[C@H]1CN(c1nc(NCc3nc4ccccc4[nH]3)n3ncc(Br)c3n1)C2 [Example 289, 2-[(1R,5S,6s)-6-amino-3-azabicyclo[3.1.1]heptan-3-yl]-N-[(1H-benzimidazol-2-yl)methyl]-8-bromopyrazolo[1,5-a][1,3,5]triazin-4-amine]",3.13,2240,1.76,,10.3
"CNC1CCN(c2nc(NCc3nc4ccccc4[nH]3)n3ncc(Br)c3n2)CC1 [Example 272, N-[(1H-benzimidazol-2-yl)methyl]-8-bromo-2-[4-(methylamino)piperidin-1-yl]pyrazolo[1,5-a][1,3,5]triazin-4-amine]",7.24,>2761,1.38,,27.7
"FC(F)(F)Cc1cnn2c(NCc3nc4ccccc4[nH]3)nc(N3CCOCC3)nc12.O=CO [Example 265, formic acid-N-[(1H-benzimidazol-2-yl)methyl]-2-(morpholin-4-yl)-8-(2,2,2-trifluoroethyl)pyrazolo[1,5-a][1,3,5]triazin-4-amine (1/1)]",7.23,>2310,3.14,,106
"Brc1cnn2c(NCc3nc4ccccc4[nH]3)nc(N3CC4CCNC4C3)nc12 (stereo not drawn) [Example 271, 2-(2,3,3a,4,6,6a-hexahydro-1H-pyrrolo[2,3-c]pyrrol-5-yl)-N-(1H-benzimidazol-2-ylmethyl)-8-bromo-pyrazolo[1,5-a][1,3,5]triazin-4-amine]",18.3,>1094,1.21,,40
"Brc1cnn2c(NCc3nnc(-c4ccccc4)[nH]3)nc(N3CCOCC3)nc12 [Example 24, 8-bromo-2-(morpholin-4-yl)-N-[(5-phenyl-4H-1,2,4-triazol-3-yl)methyl]pyrazolo[1,5-a][1,3,5]triazin-4-amine]",7.78,564,1.67,,53.3
"N[C@@H]1CN(c2nc(NCc3nc4ccccc4[nH]3)n3ncc(Br)c3n2)CC12CC2 [Example 251, 2-[(7S)-7-amino-5-azaspiro[2.4]heptan-5-yl]-N-[(1H-benzimidazol-2-yl)methyl]-8-bromopyrazolo[1,5-a][1,3,5]triazin-4-amine]",0.145,6727,0.11,,2.73
CCNC1CCN(c2nc(NCc3nc4ccccc4[nH]3)n3ncc(Br)c3n2)CC1 [Example 300],17.9,>1120,1.03,,106
"Brc1cnn2c(NCc3nc4ccccc4[nH]3)nc(N3CCC4(CCN4)CC3)nc12 [Example 291, N-[(1H-benzimidazol-2-yl)methyl]-8-bromo-2-(1,7-diazaspiro[3.5]nonan-7-yl)pyrazolo[1,5-a][1,3,5]triazin-4-amine]",19.2,554,10,,59.4

# Further lines, results first:
DC50 [1] [nM],(IC50 CDK12 high ATP) to (Degradation DC50 CDK12) ratio [1],DC50 [2] [nM],IC50 [3] [nM],"IC50 ([3]; Homo sapiens, MDA-MB-231, 96 h) [nM]",SMILES
8.26,190,0.863,,5.05,"Fc1cc2nc(CNc3nc(N4CCOCC4)nc4c(C5CC5)cnn34)[nH]c2cc1Cl [Example 307, N-[(6-chloro-5-fluoro-1H-benzimidazol-2-yl)methyl]-8-cyclopropyl-2-(morpholin-4-yl)pyrazolo[1,5-a][1,3,5]triazin-4-amine]"
6.15,>3251,0.892,,16.7,"CN1CCN(c2nc(NCc3nc4cc(F)c(F)cc4[nH]3)n3ncc(C4CC4)c3n2)CC1 [Example 311, 8-cyclopropyl-N-[(5,6-difluoro-1H-benzimidazol-2-yl)methyl]-2-(4-methylpiperazin-1-yl)pyrazolo[1,5-a][1,3,5]triazin-4-amine]"
4.72,2961,3.78,,34.8,"FC1(F)CC1c1cnn2c(NCc3nc4ccccc4[nH]3)nc(N3CCOCC3)nc12 (stereo not drawn) [Example 279, N-[(1H-benzimidazol-2-yl)methyl]-8-(2,2-difluorocyclopropyl)-2-(morpholin-4-yl)pyrazolo[1,5-a][1,3,5]triazin-4-amine]"
5.47,179,0.347,,5.21,"CN(CC(C)(C)O)c1nc(NCc2nc3cc(F)c(Cl)cc3[nH]2)n2ncc(C3CC3)c2n1 [Example 317, 1-[(4-{[(6-chloro-5-fluoro-1H-benzimidazol-2-yl)methyl]amino}-8-cyclopropylpyrazolo[1,5-a][1,3,5]triazin-2-yl)(methyl)amino]-2-methylpropan-2-ol]"
4.22,1968,1.44,,10.5,"CN1CCN(c2nc(NCc3nc4cc(Cl)ccc4[nH]3)n3ncc(C(F)(F)F)c3n2)CC1 [Example 298, N-[(5-chloro-1H-benzimidazol-2-yl)methyl]-2-(4-methylpiperazin-1-yl)-8-(trifluoromethyl)pyrazolo[1,5-a][1,3,5]triazin-4-amine]"
1.7,57,0.303,,3.87,"FC(F)(F)c1cnn2c(NCc3nc4cc(Cl)ccc4[nH]3)nc(N3CCOCC3)nc12 [Example 275, N-[(5-chloro-1H-benzimidazol-2-yl)methyl]-2-(morpholin-4-yl)-8-(trifluoromethyl)pyrazolo[1,5-a][1,3,5]triazin-4-amine]"
0.946,9730,0.648,,12,"C[C@@H]1CN(c2nc(NCc3nc4ccccc4[nH]3)n3ncc(C4CC4)c3n2)C[C@H](C)N1 [Example 248, N-[(1H-benzimidazol-2-yl)methyl]-8-cyclopropyl-2-[(3R,5S)-3,5-dimethylpiperazin-1-yl]pyrazolo[1,5-a][1,3,5]triazin-4-amine]"
